Test results published in publication PMC12024561, “Production, Biochemical Characterization, and Application of Laccase from Halophilic Curvularia lunata MLK46 Recovered from Mangrove Rhizosphere” (Biology, 2025).

Tested on: T1, laccase from C. lunata MLK46 (MLK46 laccase)
T1 construct: gene EC 1.10.3.2; secreted native enzyme purified from culture filtrate (ammonium sulphate, DEAE-Sepharose)
Assay: spectrophotometric oxidation assay, Lineweaver-Burk
Type: biochemical, Curvularia lunata
Conditions: free enzyme, O2 as electron acceptor, pH and temperature of kinetics not clearly stated ("stated conditions")

COc1cc(-c2ccc(N)c(OC)c2)ccc1N [o-dianisidine]
Km: 2.7 mM

COc1ccccc1O [guaiacol]
Km: 10.3 mM

CCn1c(=NN=c2sc3cc(S(=O)(=O)O)ccc3n2CC)sc2cc(S(=O)(=O)O)ccc21 [ABTS, 2,2’-azino-bis(3-ethylbenzothiazoline-6-sulfonic acid)]
Km (A420, standard assay at 50 °C): 4.17 mM

Oc1c(Cl)cccc1Cl [2,6-dichlorophenol]
Km: 5.55 mM
